These results are taken from PubChem BioAssay (NCI).

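Assay format: 96-well plates, 48-hour exposure. The concentration for full growth arrest is given as TGI.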 Where only a bound is given, the exact number is not on record here.

Experiment in all cases: NCI-60 cell line screen, 48 h
Test [1] concerns RXF 393 renal.
The subject of test [2] is HL-60(TB) leukemia.
For test [3], the system named is SNB-75 CNS.
In test [4] the test system is SF-539 CNS.
Test [5] has as its system U251 CNS.
The subject of test [6] is MALME-3M melanoma.
Test [7] has as its system HCT-116 colon.
For test [8], the system named is NCI-H23 lung.
The test system of test [9] is SNB-19 CNS.
Test [10] has as its system MDA-MB-435.
In test [11] the test system is MDA-MB-231 breast.
Test [12] relates to UO-31 renal.
For test [13], the system named is NCI-H522 lung.
The test system of test [14] is SK-MEL-2 melanoma.
The test system of test [15] is CAKI-1 renal.
Test [16] deals with EKVX NSCLC.
In test [17] the test system is UACC-62 melanoma.
In test [18] the test system is DU-145 prostate.
Test [19] concerns MDA-N.

In the case of `O=c1ssc(Cl)c1Nc1c(Cl)ssc1=O`, the TGI in test [1] is 28.3 µM; in test [2], 35.1 µM; in test [3], 46.5 µM; in [4] it was 59.3 µM; in test [5] it was 36.8 µM; in test [6], 37.7 µM. The TGI was 33.9 µM in [7]; 38.8 µM in [8]; 69.1 µM in [9]; 37.7 µM in [10]; 41.1 µM in test [11]; 32.4 µM in test [12]. In addition, the TGI is 60.5 µM in test [13]; 37.6 µM in test [14]; 32 µM in test [15]; 41.4 µM in test [16]; more than 55 µM in test [17]; 32.3 µM in test [18].

`NCCCCN(CCCN)C(=O)c1ccccc1`: the TGI in test [1], in test [2], in [3], in test [4], in [5] and in test [7] was more than 100 µM each time. For the same molecule, the TGI in [8], in test [9], in test [10], in test [11], in [12] and in test [13] was more than 100 µM each time. The TGI in test [14], in test [15], in test [16], in [17] and in test [18] was more than 100 µM in each case.

Consider `O=C(c1ccc2ccccc2c1)N(Cc1cccnc1)C(=S)N(Cc1cccnc1)C(=O)c1ccc2ccccc2c1`, for which the TGI in test [1] was 43.9 µM; in [2], more than 100 µM; in [3] it was 53.5 µM; in [4] it was more than 100 µM; in test [5], 38.6 µM; in test [6] it was more than 100 µM. Besides, the TGI was more than 100 µM in test [7]; 63.7 µM in test [8]; more than 100 µM in test [9]; more than 100 µM in [10]; 44.1 µM in test [11]; 97.8 µM in [12]. Moreover, the TGI was more than 100 µM in test [13]; 75.7 µM in test [14]; 44 µM in test [15]; 77.1 µM in [16]; more than 100 µM in test [17]; 69.5 µM in test [18].

For the molecule `O=C(O)c1ccc(-c2nc3ccc(Cl)cc3[nH]2)cc1`, the TGI in [1], in test [2], in test [3], in [4], in [5] and in test [9] was more than 100 µM in each case. For the same molecule, the TGI in test [11], in [12], in test [13], in [14], in test [15] and in test [16] was more than 100 µM throughout.

With `CCOC(=O)N(c1ccccc1)c1cc(=O)n2ccccc2n1`, the TGI in [1], in test [2], in test [3], in test [4], in [5] and in [6] was more than 100 µM in each case. Moreover, the TGI in test [7], in test [8], in test [9], in [10], in test [11] and in test [12] was more than 100 µM each time. Besides, the TGI in test [15], in test [16], in test [17] and in test [18] was more than 100 µM throughout.

Turning to `COCc1cc2c(cc1/C(=C/[N+](=O)[O-])CS(=O)(=O)c1ccccc1)OCO2`, the TGI in [1], in test [2], in test [3], in test [4], in [5] and in test [7] was more than 100 µM each time. For the same molecule, the TGI in test [8], in test [19], in test [10], in test [12], in test [13] and in [15] was more than 100 µM throughout. Also, the TGI in test [16], in test [17] and in test [18] was more than 100 µM throughout.

As to `CCCCCC[C@H]1CC(=O)C2CCCC[C@@]23CC[C@H](CCl)N13` (stereo partly drawn) (tested in a mixture with another compound), the TGI in [2] is 46.5 µM; in [3], 81.6 µM; in test [4], more than 100 µM; in test [5] it was more than 100 µM; in [6], more than 100 µM; in [7], more than 100 µM. The TGI in test [8] was more than 100 µM; in [9] it was more than 100 µM; in [10], more than 100 µM; in test [11] it was more than 100 µM; in test [12] it was more than 100 µM; in test [13] it was 37.5 µM. The TGI in test [14], in [15], in [16], in test [17] and in test [18] was more than 100 µM each time.
